Results reported in paper PMC9770967, “Native holdup (nHU) to measure binding affinities from cell extracts” (Science Advances, 2022).
*1 amine or outer side, *2 acyl side, *3 side chain or, on linkers, in order; H or OH if unused. Where a SMILES comes first, the peptide text is derived from it. The star is where a group is joined. X1 = O=C(CCCC[C@@H]1SC[C@@H]2NC(=O)N[C@@H]21)NCCCOCCOCCOCCCN*; Suc = O=C(CCC(=O)[*:2])[*:1]

Assays:
[1] = test system: SNX27_PDZ; test: AP-MS control pull-down on leftover resin, SNX27_PDZ bait, total Jurkat extracts; assay type: binding, human
Method: (§1) Leftover beads from nHU-MS experiments were washed three times immediately after the separation of the supernatant [10 resin volume in buffer containing 50 mM tris (pH 8.5), 150 mM NaCl, 1% Triton X-100, 10× cOmplete EDTA-free protease inhibitor cocktail, 2 mM EDTA, and 1 mM TCEP]. Then, the beads were washed two times [10 resin volume buffer containing 50 mM tris (pH 8.5), 150 mM NaCl, and 1 mM TCEP]. Last, captured protein was eluted from the resin in two steps, and the eluted fractions were pooled. For each elution, the beads were incubated for 30 min with three resin volume buffer containing 20 mM tris (pH 8.5), 100 mM NaCl, 500 μM TCEP, and 8 M urea. Between each step, the beads were separated by mild centrifugation, and the supernatant was removed by gentle pipetting.
(§2) The nHU samples were precipitated with trichloroacetic acid (TCA) 20% overnight at 4°C and centrifuged at 14,000 rpm for 10 min at 4°C. The protein pellets were washed twice with 1 ml of cold acetone and air-dried. The protein extracts were solubilized in 8 M urea, reduced with 5 mM TCEP for 30 min, and alkylated with 10 mM iodoacetamide for 30 min in the dark. Double digestion was performed at 37°C with 500 ng of endoproteinase Lys-C (Wako, Richmond, USA) for 4 hours, followed by fourfold dilution and an overnight digestion with 500 ng of trypsin (Promega, Charbonnieres les Bains, France). Peptide mixtures were then desalted on a C18 spin-column and dried on a speed vacuum.
(§3) Samples were analyzed using an Ultimate 3000 nano-RSLC coupled in line via a nano-electrospray ionization source, with an LTQ-Orbitrap ELITE mass spectrometer (Thermo Fisher Scientific, San Jose, CA) or with the Orbitrap Exploris 480 mass spectrometer (Thermo Fisher Scientific, Bremen, Germany) equipped with a high field asymmetric ion mobility spectrometry (FAIMS) module. Peptide mixtures were injected in 0.1% trifluoroacetic acid on a C18 Acclaim PepMap100 trap column [75 μm inner diameter (ID) × 2 cm, 3 μm, 100 Å, Thermo Fisher Scientific] for 3 min at 5 μl/min with 2% acetonitrile (ACN) and 0.1% formic acid (FA) in H2O and then separated on a C18 Acclaim PepMap100 nano-column (75 μm ID × 50 cm, 2.6 μm, 150 Å, Thermo Fisher Scientific) at 300 nl/min and 40°C with a 90-min linear gradient from 5 to 30% buffer B (A: 0.1% FA in H2O/B: 80% ACN, 0.1% FA in H2O) and regeneration at 5% B. Spray voltage was set to 2.1 kV and heated capillary temperature was set to 280°C.
For the Orbitrap Elite, the mass spectrometer was operated in positive ionization mode in data-dependent mode with survey scans from mass/charge ratio (m/z) 350 to 1500 acquired in the Orbitrap at a resolution of 120,000 at m/z 400. The 20 most intense peaks from survey scans were selected for further fragmentation in the linear ion trap with an isolation window of 2.0 Da and were fragmented by collision-induced dissociation (CID) with a normalized collision energy of 35% (TOP 20 CID method). Unassigned and single-charged states were excluded from fragmentation. The ion target value for the survey scans (in the Orbitrap) and the MS2 mode (in the linear ion trap) were set to 1E6 and 5E3, respectively, and the maximum injection time was set to 100 ms for both scan modes. Dynamic exclusion was set to 20 s after one repeat count with mass width at ±10 parts per million (ppm). […]

[2] = test system: SNX27_PDZ; test: nHU-MS, SNX27_PDZ bait, total Jurkat extracts, series 1; assay type: binding, human
Method: (§4) The empty His6-AviTag-MBP-TEV vector was used to produce biotinylated MBP for control experiments. Proteins were coexpressed with BirA biotin ligase (PET21a-BirA, Addgene, no. 20857) in Escherichia coli BL21(DE3) cells. At isopropyl-β-D-thiogalactopyranoside (IPTG) induction (1 mM IPTG at 18°C overnight), 50 μM biotin was added to the media. Harvested cells were lysed in a buffer containing 50 mM tris (pH 7.5), 150 to 300 mM NaCl, 50 μM biotin, 2 mM β-mercaptoethanol, cOmplete EDTA-free protease inhibitor cocktail (Roche, Basel, Switzerland), 1% Triton X-100, and trace amount of deoxyribonuclease, ribonuclease, and lysozyme. Lysates were frozen at −20°C before further purification steps. Lysates were sonicated and centrifuged for clarification. Expressed proteins were captured on in-house prepacked Ni-IDA (Protino Ni-IDA Resin, Macherey-Nagel, Duren, Germany) columns and were washed with at least 10 column volumes of cold wash buffer [50 mM tris (pH 7.5), 150 mM NaCl, and 2 mM β-mercaptoethanol] before elution with 250 mM imidazole. The Ni elution was collected directly on a preequilibrated amylose column (amylose high flow resin, New England Biolabs, Ipswich, MA). Amylose column was washed with 5 column volumes of cold wash buffer before fractionated elution in a buffer containing 25 mM Hepes (pH 7.5), 150 mM NaCl, 1 mM TCEP, 10% glycerol, 5 mM maltose, and cOmplete EDTA-free protease inhibitor cocktail. The concentration of proteins was determined by their ultraviolet absorption at 280 nm before aliquots were snap-frozen in liquid nitrogen and stored at −80°C.
(§5) For saturating streptavidin resin with biotinylated peptides or biotin, 50 μl of streptavidin resin was mixed with biotin or peptide at 40 to 60 μM concentration in 6 to 6.5 resin volume for 60 min. To saturate streptavidin resin with biotinylated proteins, 50 μl of streptavidin resin (Streptavidin Sepharose High Performance, Cytiva) was mixed with biotinylated MBP or MBP-PDZ at 40 to 50 μM concentration in 20× resin volume for 60 min. After saturation, resins were washed a single time [10 resin volume, holdup buffer: 50 mM tris (pH 7.5), 300 mM NaCl, and 1 mM TCEP, 0.22-μm filtered] and were depleted with biotin (10 resin volume, 10 min, holdup buffer supplemented with 100 μM biotin). Last, resins were washed two times (10 resin volume, holdup buffer).
(§6) For single-point nHU experiments carried out at ~10 μM bait concentration, 50 μl of saturated streptavidin resin was mixed with 200 μl of cell lysate (2 mg/ml). Titration experiments were carried out by mixing control and bait-saturated resin and keeping the total resin volume constant; e.g., ~5 μM bait concentration can be achieved by mixing 25 μl of bait-saturated streptavidin resin with 25 μl of control resin and 200 μl of cell lysate (2 mg/ml). Control and bait-saturated resins were prepared in larger amounts, and a serial dilution was prepared with these presaturated resins to achieve different resin ratios.
(§7) Unless specified elswhere, the nHU mixture was incubated at 4°C for 2 hours. After the incubation ended, the resin was separated from the supernatant by a brief centrifugation (15 s, 2000 g). Then, half of the supernatant was removed by pipetting without any delay to avoid any resin contamination; e.g., 100 μl of supernatant is collected if 200 μl of cell lysate was used as analyte. Alternatively, the supernatant can be centrifuged an additional time to clarify it further, removing any possible resin contamination. In principle, the separation of the supernatant should be as fast as possible since any delay can perturb the equilibrium. […] Alternatively, the resin can be separated from the supernatant using filter plates (e.g., various products of Millipore, Burlington, MA) or spin columns (e.g., Pierce spin cups—cellulose acetate filter from Thermo Fisher Scientific, Waltham, MA) to achieve faster separation. […]

[3] = target: SNX27_PDZ; test: nHU-MS, SNX27_PDZ bait, total SH-SY5Y extracts; assay type: binding, human; settings: for pKapp_HU_not_filtered / pKapp_significant_binders_HU: apparent; for pKapp_HU_not_filtered: Eq. 2, not filtered for significance; for pKapp_significant_binders_HU: Eq. 2, significant binders (1 σ, P < 0.05); for BI_HU / FC_HU (log2 fold change) / Ratio_HU: n = 6
Method: as §4, §5, §6, §7

[4] = test system: SNX27_PDZ; test: AP-MS control pull-down on leftover resin, SNX27_PDZ bait, total SH-SY5Y extracts; assay type: binding, human; settings: n = 6
Method: as §1, §2, §3
For the Orbitrap Elite, the mass spectrometer was operated in positive ionization mode in data-dependent mode with survey scans from mass/charge ratio (m/z) 350 to 1500 acquired in the Orbitrap at a resolution of 120,000 at m/z 400. […]

[5] = target: full-length SNX27; test: nHU-MS, recombinant full-length SNX27 bait, total Jurkat extracts; assay type: binding, human; settings: apparent, Fig. 4D, n = 6
Method: as §4, with “Amylose column was washed with 5 column volumes of cold wash buffer before fractionated elution in a buffer containing 25 mM Hepes (pH 7.5), 150 mM NaCl, 1 mM TCEP, 10% glycerol, 5 mM maltose, and cOmplete EDTA-free protease inhibitor cocktail.” left out, “−80°C. […]” for “−80°C.”

[6] = target: T1, endogenous full-length SNX27 (Homo sapiens, UniProt Q96L92); test: Single-point nHU-WB, 12 PBM peptide baits, Jurkat extract; assay type: binding
T1 construct: Supernatant fractions were probed with specific antibodies against endogenous full-length PDZ domain–containing proteins SCRIB and SNX27; endogenous in cells; host or cells: Jurkat E6.1 total cell extract

[7] = target: endogenous full-length SCRIB (Homo sapiens, UniProt Q14160); test: as above; assay type: binding
[8] = target: SCRIB PDZ2; settings: fragmentomic, isolated PDZ domain; cited from earlier work
Source text: (§8) Supplement sciadv.ade3828_table_s1.zip/sciadv.ade3828_table_s1.xlsx, sheet "nHU-WB_SP"

[9] = target: SCRIB PDZ3; settings: fragmentomic, isolated PDZ domain; cited from earlier work
Source text: as §8

[10] = target: isolated PDZ domain of SNX27; settings: 10-mer PBM peptide vs isolated PDZ domain, holdup; cited from earlier work
[11] = target: SCRIB PDZ1; settings: fragmentomic, isolated PDZ domain; cited from earlier work
Source text: Supplement sciadv.ade3828_table_s1.zip/sciadv.ade3828_table_s1.xlsx, sheet "nHU-WB_SP" | column: Domain-motif fragmentomic affinities (ProfAff)

[12] = Jurkat, series 1, leftover resin, n = 6

Sequence of endogenous full-length SCRIB (Q14160 whole entry, the tested form may be a part): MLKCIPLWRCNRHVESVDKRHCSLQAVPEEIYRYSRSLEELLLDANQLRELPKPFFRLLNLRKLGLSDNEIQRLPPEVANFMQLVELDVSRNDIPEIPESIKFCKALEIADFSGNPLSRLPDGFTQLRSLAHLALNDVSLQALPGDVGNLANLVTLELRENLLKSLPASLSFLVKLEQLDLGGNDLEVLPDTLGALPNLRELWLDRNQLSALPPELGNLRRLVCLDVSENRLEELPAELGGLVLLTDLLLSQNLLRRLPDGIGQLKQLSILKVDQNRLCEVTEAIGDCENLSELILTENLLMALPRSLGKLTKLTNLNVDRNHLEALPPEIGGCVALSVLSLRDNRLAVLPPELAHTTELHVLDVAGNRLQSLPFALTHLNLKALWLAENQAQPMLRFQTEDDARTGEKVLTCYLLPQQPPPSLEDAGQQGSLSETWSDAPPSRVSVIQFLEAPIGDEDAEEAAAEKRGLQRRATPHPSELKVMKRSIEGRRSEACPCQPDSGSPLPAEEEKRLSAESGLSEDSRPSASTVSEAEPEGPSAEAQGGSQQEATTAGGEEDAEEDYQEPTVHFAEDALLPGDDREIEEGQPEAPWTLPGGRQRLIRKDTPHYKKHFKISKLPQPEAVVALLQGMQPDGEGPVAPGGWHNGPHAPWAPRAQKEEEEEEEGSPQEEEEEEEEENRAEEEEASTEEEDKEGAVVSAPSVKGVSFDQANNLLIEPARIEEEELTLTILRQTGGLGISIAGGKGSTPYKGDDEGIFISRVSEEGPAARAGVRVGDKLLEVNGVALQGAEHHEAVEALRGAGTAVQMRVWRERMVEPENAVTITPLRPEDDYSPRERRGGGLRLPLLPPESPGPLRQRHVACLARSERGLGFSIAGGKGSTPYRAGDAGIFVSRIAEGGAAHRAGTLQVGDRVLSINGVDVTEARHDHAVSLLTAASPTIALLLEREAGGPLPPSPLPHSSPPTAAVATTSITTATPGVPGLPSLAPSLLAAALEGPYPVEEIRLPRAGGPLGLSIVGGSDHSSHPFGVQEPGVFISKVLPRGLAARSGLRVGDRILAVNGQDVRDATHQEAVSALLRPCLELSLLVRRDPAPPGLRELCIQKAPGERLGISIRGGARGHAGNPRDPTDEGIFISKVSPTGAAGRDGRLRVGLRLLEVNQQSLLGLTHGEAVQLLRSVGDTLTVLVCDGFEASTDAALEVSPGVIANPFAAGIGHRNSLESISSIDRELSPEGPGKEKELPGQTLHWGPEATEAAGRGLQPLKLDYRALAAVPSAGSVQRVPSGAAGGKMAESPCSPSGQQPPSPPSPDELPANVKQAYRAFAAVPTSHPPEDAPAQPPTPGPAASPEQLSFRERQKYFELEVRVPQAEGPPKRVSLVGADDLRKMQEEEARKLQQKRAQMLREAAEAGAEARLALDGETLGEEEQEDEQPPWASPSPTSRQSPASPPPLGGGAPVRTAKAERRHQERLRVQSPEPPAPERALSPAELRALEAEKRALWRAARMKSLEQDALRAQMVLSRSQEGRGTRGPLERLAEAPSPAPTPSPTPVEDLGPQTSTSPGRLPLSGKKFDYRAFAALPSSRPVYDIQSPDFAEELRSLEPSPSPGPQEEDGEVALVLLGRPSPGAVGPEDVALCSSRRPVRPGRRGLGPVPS

TXNDC12: Thioredoxin domain-containing protein 12 OS=Homo sapiens
FC_AP (log2 fold change) [1, 12]: -0.5204
Ratio_AP [1, 12]: 0.6972
BI_HU ([2]; Jurkat, series 1, n = 6): 0.2712
FC_HU (log2 fold change) ([2]; Jurkat, series 1, n = 6): -0.4564
Ratio_HU ([2]; Jurkat, series 1, n = 6): 0.7288
pKapp_significant_binders_HU ([2]; apparent, Eq. 2, Jurkat, series 1, significant binders (1 σ, P < 0.05)): 4.572

ELOC: Elongin-C
pKapp_HU_not_filtered [3]: 4.672
pKapp_significant_binders_HU [3]: 4.672
BI_HU [3]: 0.3189
FC_HU (log2 fold change) [3]: -0.5541
Ratio_HU [3]: 0.6811
FC_AP (log2 fold change) [4]: -2.345
Ratio_AP [4]: 0.1968

SNX1: component of the SNX-BAR complex
pKapp [5]: 5.47

CC(C)C[C@H](NC(=O)[C@H](CC(N)=O)NC(=O)[C@@H](NC(=O)[C@H](CCC(=O)O)NC(=O)[C@H](CC(=O)O)NC(=O)[C@H](Cc1c[nH]c2ccccc12)NC(=O)[C@H](C)NC(=O)[C@@H]1CCCN1C(=O)[C@H](CC(=O)O)NC(=O)[C@H](CC(N)=O)NC(=O)CCC(=O)NCCCOCCOCCOCCCNC(=O)CCCC[C@@H]1SC[C@@H]2NC(=O)N[C@@H]21)[C@@H](C)O)C(=O)O [ARHGEF7] ({X1-Suc}-NDPAWDETNL-OH; C-terminus assumed)
Kd [6]: 1.51 µM
Kd [7]: 1.35 µM
pKd_PDZ2 [8]: 4.68
pKd_PDZ3 [9]: 5.08
pKd (fragmentomic affinity) [10]: 5.66
pKd_PDZ1 [11]: 5.50

VPS26B: component of the retromer complex
pKapp [5]: 5.23

CC(C)C[C@H](NC(=O)[C@@H]1CCCN1C(=O)[C@H](Cc1c[nH]cn1)NC(=O)[C@H](Cc1ccccc1)NC(=O)CCC(=O)NCCCOCCOCCOCCCNC(=O)CCCC[C@@H]1SC[C@@H]2NC(=O)N[C@@H]21)C(=O)NCC(=O)N[C@@H](C)C(=O)N[C@@H](CC(=O)O)C(=O)N[C@@H](CO)C(=O)N[C@@H](CCC(N)=O)C(=O)N[C@H](C(=O)O)C(C)C [SLC2A1] ({X1-Suc}-FHPLGADSQV-OH; C-terminus assumed)
Kd [6]: 25.1 µM
Kd [7]: 69.2 µM
pKd_PDZ3 [9]: 3.58
pKd (fragmentomic affinity) [10]: 4.05
pKd_PDZ1 [11]: 4.02

MACROH2A1
Ratio_AP ([1]; AP-MS control pull-down, SNX27/MBP, total Jurkat extract): 19.7749
FC_AP ([1]; AP-MS control pull-down, SNX27 vs MBP, total Jurkat extract): 4.3056
BINDER_AP ([1]; AP-MS control pull-down, total Jurkat extract, BINDS / DOES NOT BIND): BINDS
Ratio_HU ([2]; nHU-MS, SNX27/MBP, total Jurkat extract, sheet "SNX27&Jurkat"): 0.6592
BI_HU ([2]; nHU-MS, SNX27 bait vs MBP control, total Jurkat extract, sheet "SNX27&Jurkat"): 0.3408
pKapp_HU_not_filtered ([2]; nHU-MS, SNX27 bait, total Jurkat extract, not filtered for significance): 4.715
FC_HU ([2]; nHU-MS, SNX27 vs MBP control, total Jurkat extract, sheet "SNX27&Jurkat"): -0.6013

VTN: Vitronectin
pKapp_HU_not_filtered [3]: 4.715
pKapp_significant_binders_HU [3]: 4.715
BI_HU [3]: 0.3408
FC_HU (log2 fold change) [3]: -0.6012
Ratio_HU [3]: 0.6592
FC_AP (log2 fold change) [4]: 0.6536
Ratio_AP [4]: 1.573
